Test results from patent publication US20110300147A9, “Inhibiting tumor cell invasion, metastasis and angiogenesis” (The Scripps Research institute, priority 2005, published 2011).
Peptide text beside a SMILES is read from it. * marks the point of attachment. Doxorubicin(3'-N) = COc1cccc2c1C(=O)c1c(O)c3c(c(O)c1C2=O)C[C@@](O)(C(=O)CO)C[C@@H]3O[C@H]1C[C@H](N*)[C@H](O)[C@H](C)O1; Boc = CC(C)(C)OC(=O)*

What was measured:
cancer cells = assay: chemo-sensitizing cytotoxic assay, TNF-α plus legumain inhibitor; format: cell-based; settings: compared among AEPI-1 to AEPI-5
Procedure: Chemo-sensitizing Cytotoxic Assay. Cancer cells were prepared for the assay as follows. The cells were centrifuged at 800 rpm for 10 minutes, resuspended in DMEM to a density of 1.0×10^5 cells/ml. Approximately 5 ml of cells were used per assay plate. Cells (100 ul) were added to a 96-well flat bottom plate (10,000 cells/well, all the inner wells) and 100 ul of media was added to the outer wells. The plates were incubated at 37° C. overnight. AEPI dilutions were prepared using a 96 well round bottom plate and medium as the diluent. After overnight incubation, the media was removed from the cancer cell assay plate, and the selected AEPI was added at the selected dilution or concentration. An additional 200 ul of media was added to the outer wells. Plates were incubated overnight at 37° C. XTT reagent (or other cell viability reagent) was prepared in phenol red free media. The media was removed from cells and 200 ul of fresh media containing the XTT reagent was added to all wells. The plates were incubated for 30 min to 4 hrs and cell viability was determined by reading the plates according to manufacturer specifications.

[1] = biological target: T1, legumain in MDA MB231 breast cancer cells (Homo sapiens, UniProt Q99538); assay: AEPI inhibitory assay, intracellular legumain activity; format: cell-based
T1 construct: endogenous in cells; host or cells: MDA-MB-231 human breast cancer cells
T1 sequence (Q99538 18-323): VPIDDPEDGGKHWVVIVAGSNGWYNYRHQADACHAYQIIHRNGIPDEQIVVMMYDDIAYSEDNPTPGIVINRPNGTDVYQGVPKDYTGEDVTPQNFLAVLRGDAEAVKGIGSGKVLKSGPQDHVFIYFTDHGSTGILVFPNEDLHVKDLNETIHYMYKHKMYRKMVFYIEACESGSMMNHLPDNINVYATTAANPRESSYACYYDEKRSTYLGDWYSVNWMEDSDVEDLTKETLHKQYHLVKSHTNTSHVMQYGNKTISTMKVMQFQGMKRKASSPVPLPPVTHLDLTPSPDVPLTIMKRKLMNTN
Procedure: AEPI Inhibitory Assay. Cancer cells were centrifuged at 800 rpm for 10 minutes and resuspended in DMEM to a density of 1.0×10^5 cells/ml. Approximately 5 ml of cells is used per assay plate. Cells (100 ul) were added to a 96-well plat bottom plate (10,000 cells/well, all the inner wells) and 100 ul of media was added to the outer wells. The cells were incubated at 37° C. overnight. The inhibitor compounds were diluted in a 96 well round bottom plate and the old media was removed from the cancer cell assay plate. The inhibitor (100 ul) was added to the cell assay plate and 200 ul of media was added to the outer wells. One to three days after the cancer cells were exposed to the inhibitor, the AEP activity was assessed as follows. Cells were detached with Trypsin-free cell-cell detachment media and transfer to Eppendorf tubes. Cells were then disrupted and the AEPI substrate was added to the cell lysate. This assay mixture was then incubated for an appropriate period of time and the amount of activated substrate was measured with fluorometer.

[2] = tested on: legumain-expressing 293 (293L) cells; assay: UV-induced apoptosis of legumain-expressing 293 cells; format: cell-based, human; settings: dead cells after UV treatment as a function of AEPI-5 concentration
[3] = tested on: legumain-expressing 293 (293L) cells; assay: TNF-α induced cell death with or without AEPI-5; format: cell-based, human; settings: with or without AEPI-5, function of TNF-α concentration
legumain+ 293 cells [4] = assay: modified Boyden chamber invasion assay; format: cell-based, human
Procedure: (§1) Cell invasion and mobility assays. Cell migration and invasion assays were performed as described with modifications (Albini et al., 1987). Stock solutions (15 mg/ml) of Matrigel basement membrane matrix (Becton Dickinson, Bedford, Mass.) were stored at −80° C. in 100 μl aliquots. After thawing on ice, the stock was diluted 1:50 with cold serum-free culture media and immediately applied to each membrane insert (8 μm pore) that formed the upper chambers of the multi-well invasion assay plate. The Matrigel was incubated overnight in a sterile laminar tissue culture hood. The membranes were hydrated for 2 hours with 250 μl of serum-free medium and excess medium was removed by aspiration. Medium containing 10% FBS was added to the bottom of each well. A suspension of 10^5 cells in 150 μl of serum-free medium was added to the upper chamber and incubated for 12 hours at 37° C., 5% CO2. At the indicated times, the membrane inserts were removed from the plate and the non-invading cells were removed from the upper surface. Membrane associated cells were stained with 0.09% crystal violet for 30 minutes and washed twice with PBS. The invading cells were counted microscopically. Cell mobility assays were performed in a similar manner except the membrane inserts were not coated with Matrigel, and duration was shortened. […]

[5] = tested on: CT26 murine colon carcinoma; assay: CT26 syngeneic murine colon carcinoma model; format: in vivo, Balb/c mice
Source text: Animal models. […] Balb/C mice aged 4 to 6 weeks from the breeding colony were inoculated with 500,000 syngeneic CT26 tumor cells per site subcutaneously in the back. […] Treatment was repeated at 2 day intervals. The human 293 tumor models were generated in WEHI nude mice (The Scripps Research Institute breeding colony). […] Tumor growth and physical signs were monitored daily including any gross evidence of tumor necrosis, local tumor ulceration as well as evidence of toxicity including mobility, response to stimulus, eating, and weight of each animal. These procedures have been reviewed and approved by the Institutional Animal Care and Use Committee at The Scripps Research Institute. The work was conducted in The Scripps Research Institute facilities which are accredited by the Association for the Assessment and Accreditation of Laboratory Animal Care. The Scripps Research Institute maintains an assurance with the Public Health Service, is registered with the United States Department of Agriculture and is in compliance with all regulations relating to animal care and welfare.
Animal models. […] Treatment was three times per week for two weeks.

legumain+ 293 cells [6] = assay: WST-1 cytotoxicity assay, legumain+ 293 cells; settings: 48 h
Procedure: (§2) Cytotoxic assays. The WST-1 cell proliferation reagent (Roche Molecular Chemicals, Germany) was used to determine cell proliferation by quantification of cellular metabolic activity. Control 293 cells and legumain+ 293 cells were cultivated in microtiter plates (5×10^3 cells per well in 100 μl) and were incubated with serial concentrations of legubicin or doxorubicin for 48 h. Subsequently, 10 μl of WST-1 solution (1 mg/ml WST-1, 25 μM -methyldibenzopyrazine methyl sulfate) was added per well, and mixtures were incubated for an additional 4 h. The tetrazolium salt WST-1 (4-[3-(4-lodophenyl)-2-(4-nitrophenyl)-2H-5-tetrazolio-1,3-benzene disfonate) was cleaved by the mitochondrial succinate-tetrazolium-reductase system to formazan in cells which directly correlates to the number of metabolically viable cells in the culture. The amount of formazan salt was quantified in three replicates by absorbance at 450 nm using a micro-plate reader (Molecular Devices, Palo Alto, Calif.).
(§3) Cytotoxicity assays. The WST-1 cell proliferation reagent (Roche Molecular Chemicals, Germany) was used to determine cell proliferation by quantization of cellular metabolic activity. […] The amount of formazan salt was quantified in three replicates by absorbance at 450 nm using a micro-plate reader (Molecular Devices, Palo Alto, Calif.).

control 293 cells = assay: WST-1 cytotoxicity assay, control 293 cells; settings: control 293 cells, 48 h
Procedure: as §2, §3

[7] = tested on: legumain-promoted cancer cell invasion; assay: cancer cell invasion assay with recombinant legumain protein; format: cell-based; settings: recombinant legumain protein added
Procedure: as §1

[8] = biological target: T2, cell surface bound legumain (Homo sapiens, UniProt Q99538); assay: gelatin zymogram, activation of progelatinase A by cells expressing legumain; format: cell-based; settings: zymogen incubated with cells 10 minutes
T2 construct: expressed in transfected cells; host or cells: 293 cells stably expressing human legumain (legumain+ 293)
T2 sequence (Q99538 18-323): as above
Procedure: Zymogram. Control 293 cells and legumain+ 293 cells were plated into 96 wells plates at a cell density of 4,000 cells/well. The cells were allowed to attach overnight, then were serum starved for four hours. Zymogen forms of metalloproteinase 2 or 9 (Chemicon, Temecula, Calif.) were added at concentration of 0.1 μg/well with 50 μl reaction buffer (39.5 mM citric acid, 121 mM Na2HPO4, pH 5.8, 1 mM EDTA, and 0.8% […]) and the reactions were continued for 10 minutes. The reactants were collected and mixed with an equal volume of SDS sample buffer and held at room temperature for 10 minutes then applied to a zymogram gel (10% Tris-Glycine gel with 0.1% gelatin substrate). After electrophoresis, the gel was washed briefly and incubated with 2.5% (v/v) Triton X-100 at room temperature for 30 minutes with gentle agitation. Digestion of the incorporated gelatin by activated collagenase was conducted in buffer ([…], pH 7.25, 200 mM NaCl, […], 0.05% Brij-35, 0.02% NaN3) overnight. The gel was stained with Coomassie Blue R250 (Novex, San Diego, Calif.) and the presence of a protease was readily observed as a clear band.
Activation of progelatinase A by legumain. […] Zymogen forms of gelatinase A and B were incubated with the cells for 10 minutes, and the reaction products were analyzed by zymography. […] Moreover, no effect of legumain on zymogen gelatinase B was detected.

legumain+ 293 cells [9] = assay: in vitro migration assay; format: cell-based, human
Procedure: as §1

CCOC(=O)C1OC1C(=O)N(CC(N)=O)NC(=O)C(C)NC(=O)C(C)NC(C)=O [AEPI-5, N-acetyl-Ala-Ala-AzaAsn-(S,S)-EPCOOEt]
cancer cell death on combined treatment with TNF-α (cancer cells): higher levels of cancer cell death | inhibition of legumain activities in MDA MB231 breast cancer cells ([1]; compared among AEPI-1 to AEPI-5): greatest inhibition | cell permeability ([1]; preliminary results): sufficiently cell permeable | UV-induced apoptosis [2]: sensitizes legumain-expressing 293 cells to UV-induced apoptosis | TNF-α induced cell death [3]: sensitizes MDA-MB-231 human breast cancer cells to TNF-α induced cell death

CC(C)C[C@H](NC(=O)[C@H]1O[C@@H]1C(=O)O)C(=O)NCCCCN=C(N)N [E64, reference compound]
increased invasion of extracellular matrix by legumain+ cells (legumain+ 293 cells [4]): without effect

COc1cccc2c1C(=O)c1c(O)c3c(c(O)c1C2=O)C[C@@](O)(C(=O)CO)C[C@@H]3O[C@H]1C[C@H](NC(=O)[C@H](CC(C)C)NC(=O)[C@H](CC(N)=O)NC(=O)[C@H](C)NC(=O)[C@H](C)NC(=O)OC(C)(C)C)[C@H](O)[C@H](C)O1 [legubicin, N-(-t-Butoxycarbonyl-L-alanyl-L-alanyl-L-asparaginyl-L-leucyl)doxorubicin] (Boc-AANL-{Doxorubicin(3'-N)})
toxicity ([5]; i.p. 5 mg/kg three times at 2 day intervals): little evidence of toxicity | injury in organs that express legumain (kidney, liver) ([5]; single injection of 5 mg/kg): no injury was evident | cytotoxic effect on legumain+ 293 cells (legumain+ 293 cells [6]): profound cytotoxic effect | cytotoxic effect relative to that of doxorubicin (control 293 cells): less than 1%

cystatin
legumain-promoted cell invasion [7]: partially inhibited | generation of the 62 kDa active gelatinase A by cells expressing legumain [8]: inhibited | increased invasion of extracellular matrix by legumain+ cells (legumain+ 293 cells [4]): inhibited | enhanced migration of legumain+ 293 cells (legumain+ 293 cells [9]): inhibited
